Source: US20260262655A1, “INHIBITION OF SEED GERMINATION USING A COMBINATION OF BIOLOGICAL AND CHEMICAL INHIBITORS OF ETHYLENE” (Verdesian Life Sciences U.S., LLC, priority 2023, published 2026)
Where “and” joins values, the source holds several entries; their conditions need not be identical. Identical values can stand only once.

Tests used:
Type in all cases: in vivo
[1] = system: Cheatgrass, Bromus tectorum; assay: Petri dish seed germination test on cheatgrass, with Colby analysis; settings: for %_Germ—14DAP: Petri Dish Run 1, germination at day 14; for %_Germ11DAP: Petri Dish Run 2, germination at day 11, repetitions R1-R3; for %_Germ_8DAP: germination at day 8, Run1 R0 and Run2 R1-R3
Description: (§1) Place 10 seeds on moistened filter paper in 100 mm petri dishes, with three petri dishes per treatment. Using a pipette, apply 0.01 mL of the solution (water for controls, Pseudomonas for treated) evenly over the top surface of each seed. For the ethylene inhibitor treatment, place a small aluminum weigh boat containing lmL inhibitor solution in the petri dish. Ethylene inhibitor solution should be replaced daily. Cover seeds with another sheet of moistened filter paper before closing the petri dish. As needed, moisten the filter paper throughout the experiment with 1 mL of water at a time. Allow plants to germinate and grow for 11 days, removing the filter paper on day 5. Record the number of seeds germinated each day. Image analysis may be used at the end of the experiment to record total root and shoot growth.
One species: Cheatgrass, Bromus tectorum
(§2) Three timings of Pseudomonas fluorescens strain D7 application: 0, 3, and 7 days after planting
(§3) Four seed treatments: water (control), Pseudomonas fluorescens strain D7, 1-MCP, Pseudomonas fluorescens strain D7 and 1-MCP combination
Run 1: 12 seeds/dish, 1 petri dish/treatment combo
Run 2: 10 seeds/dish, 3 petri dishes/treatment combo
A Colby Analysis was carried out for the data obtained in Example 2. The first data set is shown in Table 1 below, where cheatgrass (Bromus tectorum) was treated with Pseudomonas fluorescens strain D7 (D7) and 1-methylcyclopropene (1-MCP) alone or in combination at days 0, 3, and 7 of the treatment period. The percentage of germination was then determined at day 14 of the treatment period.
The Colby equation is a standard method for determining the presence of synergy. The Colby equation is as follows:
[formula] • wherein X and Y are the effects of the active agents (e.g., Pseudomonas fluorescens strain D7 (D7) and 1-methylcyclopropene (1-MCP)) applied alone (expressed as % of control).
The standard Colby equation interpretation is: If Observed Value is greater than the Expected Value, synergy exists. However, based on the goal of reducing germination in this study, the appropriate interpretation here is: If the Observed Value is less than the Expected Value, synergy.

Tall Fescue = assay: Petri dish seed germination test on Tall Fescue; settings: Tall Fescue seeds
Description: as §1, with “1 mL” for “lmL”
(§4) Two species: Tall Fescue and Kentucky Bluegrass
as §2, §3
(§5) Twelve seeds/petri dish (TF), 40 seeds/petri dish (KB)×3 petri dishes/treatment combination

Kentucky Bluegrass = assay: Petri dish seed germination test on Kentucky Bluegrass; settings: Kentucky Bluegrass seeds
Description: as §1, with “1 mL” for “lmL”
as §4, §2, §3, §5

[2] = Petri Dish Run 2 at Day 11, treatment Day 0, mean of repetitions
[3] = Petri Dish Run 2 at Day 11, treatment Day 3, mean of repetitions
[4] = Petri Dish Run 2 at Day 11, treatment Day 7, mean of repetitions
[5] = treatment Day 0, day 8, mean of Run1 and Run2 repetitions
[6] = treatment Day 3, day 8, mean of Run1 and Run2 repetitions
[7] = treatment Day 7, day 8, mean of Run1 and Run2 repetitions

Row | Compound | %_Germ—14DAP ([1]; treatment Day 0) [%] | %_Germ—14DAP ([1]; treatment Day 3) [%] | %_Germ—14DAP ([1]; treatment Day 7) [%] | Day 8% Germ Mean [1, 2] [%] | Day 8% Germ Mean [1, 3] [%] | Day 8% Germ Mean [1, 4] [%] | Day 8% Germ Mean [1, 5] [%] | Day 8% Germ Mean [1, 6] [%] | Day 8% Germ Mean [1, 7] [%] | also measured
1 | CC1=CC1 [1-MCP, 1-methylcyclopropene, reference compound] | 75.00 | 25.00 | 100.00 | 86.67 | 83.33 | 83.33 | 81.25 | 61.25 | 75.83 | %_Germ11DAP ([1]; treatment Day 0, listed as 1-MCP alone): 80% and 90%; %_Germ11DAP ([1]; treatment Day 3, listed as 1-MCP alone): 80% and 90%; %_Germ11DAP ([1]; treatment Day 7, listed as 1-MCP alone): 100% and 70% and 80%; %_Germ_8DAP ([1]; treatment Day 0, listed as MCP): 75.00% and 80.0% and 90.0%; %_Germ_8DAP ([1]; treatment Day 7, listed as MCP): 83.33% and 90.0% and 60.0% and 70.0%
2 | Pseudomonas fluorescens strain D7 | 58.33 | 83.33 | 75.00 | 56.67 | 76.67 | 73.33 | 31.67 | 73.33 | 65.00 | %_Germ11DAP ([1]; treatment Day 0, listed as D7 Alone): 60% and 50%; %_Germ11DAP ([1]; treatment Day 3, listed as D7 Alone): 100% and 60% and 70%; %_Germ11DAP ([1]; treatment Day 7, listed as D7 Alone): 90% and 60% and 70%; influence of application time on germination outcomes ([1]; application 0, 3 or 7 days after planting): early application being the most effective; %_Germ_8DAP ([1]; treatment Day 3): 83.33% and 100.0% and 60.0% and 50.0%; %_Germ_8DAP ([1]; treatment Day 7): 50.00% and 80.0% and 60.0% and 70.0%; effect on germination (Tall Fescue): did not affect germination; effect on germination (Kentucky Bluegrass): did not affect germination
